According to US10279022B2, “Peptides and combination of peptides for use in immunotherapy against various cancers” (immatics biotechnologies GmbH, priority 2015, dated 2019):

Each substance was assayed on CD8+ T cells (assay: In vitro T-cell priming assay (aAPCs loaded with peptide/MHC and anti-CD28), pMHC multimer readout). Conditions: in vitro immunogenicity of HLA class I peptides; peptide specific pMHC multimer staining after three stimulation cycles.
Type: cell-based, human
Source text: In order to obtain information regarding the immunogenicity of the TUMAPs of the present invention, the inventors performed investigations using an in vitro T-cell priming assay based on repeated stimulations of CD8+ T cells with artificial antigen presenting cells (aAPCs) loaded with peptide/MHC complexes and anti-CD28 antibody.
In order to perform in vitro stimulations by artificial antigen presenting cells loaded with peptide-MHC complex (pMHC) and anti-CD28 antibody, the inventors first isolated CD8+ T cells from fresh HLA-A*02 leukapheresis products via positive selection using CD8 microbeads (Miltenyi Biotec, Bergisch-Gladbach, Germany) of healthy donors obtained from the University clinics Mannheim, Germany, after informed consent.
PBMCs and isolated CD8+ lymphocytes were incubated in T-cell medium (TCM) until use consisting of RPMI-Glutamax (Invitrogen, Karlsruhe, Germany) supplemented with 10% heat inactivated human AB serum (PAN-Biotech, Aidenbach, Germany), 100 U/ml Penicillin/100 μg/ml Streptomycin (Cambrex, Cologne, Germany), 1 mM sodium pyruvate (CC Pro, Oberdorla, Germany), 20 μg/ml Gentamycin (Cambrex). 2.5 ng/ml IL7 (PromoCell, Heidelberg, Germany) and 10 U/ml IL-2 (Novartis Pharma, Nurnberg, Germany) were also added to the TCM at this step.
Generation of pMHC/anti-CD28 coated beads, T-cell stimulations and readout was performed in a highly defined in vitro system using four different pMHC molecules per stimulation condition and 8 different pMHC molecules per readout condition.
The purified co-stimulatory mouse IgG2a anti human CD28 Ab 9.3 (Jung et al., 1987) was chemically biotinylated using Sulfo-N-hydroxysuccinimidobiotin as recommended by the manufacturer (Perbio, Bonn, Germany). Beads used were 5.6 μm diameter streptavidin coated polystyrene particles (Bangs Laboratories, Illinois, USA).
pMHC used for positive and negative control stimulations were A*0201/MLA-001 (peptide […] (SEQ ID NO. 303) from modified Melan-A/MART-1) and A*0201/DDX5-001 ([…] from DDX5, SEQ ID NO. 304), respectively.
800.000 beads/200 μl were coated in 96-well plates in the presence of 4×12.5 ng different biotin-pMHC, washed and 600 ng biotin anti-CD28 were added subsequently in a volume of 200 μl. Stimulations were initiated in 96-well plates by co-incubating 1×10^6 CD8+ T cells with 2×10^5 washed coated beads in 200 μl TCM supplemented with 5 ng/ml IL-12 (PromoCell) for 3 days at 37° C. Half of the medium was then exchanged by fresh TCM supplemented with 80 U/ml IL-2 and incubating was continued for 4 days at 37° C. This stimulation cycle was performed for a total of three times. For the pMHC multimer readout using 8 different pMHC molecules per condition, a two-dimensional combinatorial coding approach was used as previously described (Andersen et al., 2012) with minor modifications encompassing coupling to 5 different fluorochromes. Finally, multimeric analyses were performed by staining the cells with Live/dead near IR dye (Invitrogen, Karlsruhe, Germany), CD8-FITC antibody clone SK1 (BD, Heidelberg, Germany) and fluorescent pMHC multimers. For analysis, a BD LSRII SORP cytometer equipped with appropriate lasers and filters was used. Peptide specific cells were calculated as percentage of total CD8+ cells. Evaluation of multimeric analysis was done using the FlowJo software (Tree Star, Oregon, USA). In vitro priming of specific multimer+CD8+ lymphocytes was detected by comparing to negative control stimulations.

How did the “Wells positive [%]” value turn out when “5 (GIVAHIQEV; listed as Homo sapiens) [compound 5]” was run?
Its value is “+ (<20% = +)”.

Which “Wells positive [%]” value does the source give for “141 (FLDKVLVAA; listed as Homo sapiens) [compound 141]” here?
Its value is “+ (<20% = +)”.

With “26 (ALQEELTEL; listed as Homo sapiens) [compound 26]” as the substance, how does the “Wells positive [%]” value read?
The value was “+ (<20% = +)”.

“207 (AYVVFVSTL; listed as Homo sapiens) [compound 207]” was tested. Which “Wells positive [%]” value did it give?
Its value is “+ (<20% = +)”.

For “268 (QYLGQIQHI; listed as Homo sapiens) [compound 268]”, which “Wells positive [%]” value is on record?
Its value is “+ (<20% = +)”.

“218 (YYKSTSSAF; listed as Homo sapiens) [compound 218]” was tested. Which “Wells positive [%]” value did it give?
The value was “+ (<20% = +)”.

“230 (KLQNIMMLL; listed as Homo sapiens) [compound 230]” was tested. Which “Wells positive [%]” value did it give?
Its value is “++++ (> = 70% = ++++)”.

Which “Wells positive [%]” value does the source give for “29 (YLLDPSITL; listed as Homo sapiens) [compound 29]” here?
Its value is “+ (<20% = +)”.

“90 (FLQDLEQRL; listed as Homo sapiens) [compound 90]” was tested. Which “Wells positive [%]” value did it give?
The value was “+ (<20% = +)”.

“269 (YFIDSTNLKTHF; listed as Homo sapiens) [compound 269]” was tested. Which “Wells positive [%]” value did it give?
Its value is “+ (<20% = +)”.

How did the “Wells positive [%]” value turn out when “285 (HYPPVQVLF; listed as Homo sapiens) [compound 285]” was run?
The value was “+ (<20% = +)”.

For “196 (LYIDRPLPYL; listed as Homo sapiens) [compound 196]”, which “Wells positive [%]” value is on record?
Its value is “++++ (> = 70% = ++++)”.

“18 (ILLDLTDNRL; listed as Homo sapiens) [compound 18]” was tested. Which “Wells positive [%]” value did it give?
Its value is “+ (<20% = +)”.

“23 (SLFSDEFKV; listed as Homo sapiens) [compound 23]” was tested. Which “Wells positive [%]” value did it give?
Its value is “++++ (> = 70% = ++++)”.

“197 (EYSLFPGQVVI; listed as Homo sapiens) [compound 197]” was tested. Which “Wells positive [%]” value did it give?
Its value is “+ (<20% = +)”.

Same assay, conditions: positive wells; HLA-A*02 and HLA-A*24 peptides, healthy donors

With “292 (GMMTAILGV; listed as Homo sapiens) [compound 292]” as the substance, how does the “in vitro immunogenicity: Wells” value read?
Its value is “+ (<20% = +)”.

Which “in vitro immunogenicity: Wells” value does the source give for “296 (TYVDSSHTI; listed as Homo sapiens) [compound 296]” here?
Its value is “+ (<20% = +)”.

Which “in vitro immunogenicity: Wells” value does the source give for “293 (FLVDGSWSI; listed as Homo sapiens) [compound 293]” here?
Its value is “+ (<20% = +)”.

How did the “in vitro immunogenicity: Wells” value turn out when “291 (KLDETGNSL; listed as Homo sapiens) [compound 291]” was run?
Its value is “+ (<20% = +)”.

Which “in vitro immunogenicity: Wells” value does the source give for “298 (RYLEGTSCI; listed as Homo sapiens) [compound 298]” here?
The value was “+ (<20% = +)”.

Each substance was assayed on HLA-A*24 (assay: MHC binding assay by UV-ligand exchange and beta2m ELISA (HLA-A*24)). Conditions: peptide exchange yield, binding to HLA-A*24; UV-ligand exchange, beta2m ELISA.
Set-up: species or system human
Source text: Candidate peptides for T cell based therapies according to the present invention were further tested for their MHC binding capacity (affinity). The individual peptide-MHC complexes were produced by UV-ligand exchange, where a UV-sensitive peptide is cleaved upon UV-irradiation, and exchanged with the peptide of interest as analyzed. Only peptide candidates that can effectively bind and stabilize the peptide-receptive MHC molecules prevent dissociation of the MHC complexes. To determine the yield of the exchange reaction, an ELISA was performed based on the detection of the light chain (β2m) of stabilized MHC complexes. The assay was performed as generally described in Rodenko et al. (Rodenko et al., 2006).
96 well MAXISorp plates (NUNC) were coated over night with 2 ug/ml streptavidin in PBS at room temperature, washed 4× and blocked for 1 h at 37° C. in 2% BSA containing blocking buffer. Refolded HLA-A*02:01/MLA-001 monomers served as standards, covering the range of 15-500 ng/ml. Peptide-MHC monomers of the UV-exchange reaction were diluted 100 fold in blocking buffer. Samples were incubated for 1 h at 37° C., washed four times, incubated with 2 ug/ml HRP conjugated anti-β2m for 1 h at 37° C., washed again and detected with TMB solution that is stopped with […]. Absorption was measured at 450 nm. Candidate peptides that show a high exchange yield (preferably higher than 50%, most preferred higher than 75%) are generally preferred for a generation and production of antibodies or fragments thereof, and/or T cell receptors or fragments thereof, as they show sufficient avidity to the MHC molecules and prevent dissociation of the MHC complexes.

Which Peptide exchange does the source give for “278 (RYISDQLFTNF; listed as Homo sapiens) [compound 278]” here?
The Peptide exchange was “++++ (> = 75% = ++++)”.

“195 (TYSVSFPMF; listed as Homo sapiens) [compound 195]” was tested. Which Peptide exchange did it give?
The Peptide exchange was “++++ (> = 75% = ++++)”.

“177 (VYPWLGALL; listed as Homo sapiens) [compound 177]” was tested. Which Peptide exchange did it give?
Its Peptide exchange is “++++ (> = 75% = ++++)”.

Which Peptide exchange does the source give for “193 (RFHPTPLLL; listed as Homo sapiens) [compound 193]” here?
Its Peptide exchange is “++++ (> = 75% = ++++)”.

With “175 (YYEVHKELF; listed as Homo sapiens) [compound 175]” as the substance, how does the Peptide exchange read?
The Peptide exchange was “++++ (> = 75% = ++++)”.

With “276 (VYGFQWRHF; listed as Homo sapiens) [compound 276]” as the substance, how does the Peptide exchange read?
The Peptide exchange was “++++ (> = 75% = ++++)”.

Which Peptide exchange does the source give for “271 (LYHDIFSRL; listed as Homo sapiens) [compound 271]” here?
The Peptide exchange was “++++ (> = 75% = ++++)”.

With “211 (YYLEVGKTLI; listed as Homo sapiens) [compound 211]” as the substance, how does the Peptide exchange read?
Its Peptide exchange is “++++ (> = 75% = ++++)”.

Which Peptide exchange does the source give for “179 (MYDSYWRQF; listed as Homo sapiens) [compound 179]” here?
Its Peptide exchange is “++++ (> = 75% = ++++)”.

Which Peptide exchange does the source give for “289 (KYPVEWAKF; listed as Homo sapiens) [compound 289]” here?
Its Peptide exchange is “++++ (> = 75% = ++++)”.

With “181 (LYLDIINLF; listed as Homo sapiens) [compound 181]” as the substance, how does the Peptide exchange read?
Its Peptide exchange is “++++ (> = 75% = ++++)”.

How did the Peptide exchange turn out when “272 (QYLQDAYSF; listed as Homo sapiens) [compound 272]” was run?
The Peptide exchange was “++++ (> = 75% = ++++)”.

With “282 (KFVDSTFYL; listed as Homo sapiens) [compound 282]” as the substance, how does the Peptide exchange read?
Its Peptide exchange is “++++ (> = 75% = ++++)”.

“187 (TYLRDQHFL; listed as Homo sapiens) [compound 187]” was tested. Which Peptide exchange did it give?
Its Peptide exchange is “++++ (> = 75% = ++++)”.

Which Peptide exchange does the source give for “280 (RYPDNLKHLYL; listed as Homo sapiens) [compound 280]” here?
The Peptide exchange was “++++ (> = 75% = ++++)”.

For “172 (TYTTVPRVAF; listed as Homo sapiens) [compound 172]”, which Peptide exchange is on record?
The Peptide exchange was “++++ (> = 75% = ++++)”.

How did the Peptide exchange turn out when “277 (VYQGHTALL; listed as Homo sapiens) [compound 277]” was run?
Its Peptide exchange is “++++ (> = 75% = ++++)”.

“186 (IFPQFLYQF; listed as Homo sapiens) [compound 186]” was tested. Which Peptide exchange did it give?
The Peptide exchange was “++++ (> = 75% = ++++)”.

“192 (SYALLTYMI; listed as Homo sapiens) [compound 192]” was tested. Which Peptide exchange did it give?
The Peptide exchange was “++++ (> = 75% = ++++)”.

With “210 (IYTMIYRNL; listed as Homo sapiens) [compound 210]” as the substance, how does the Peptide exchange read?
Its Peptide exchange is “++++ (> = 75% = ++++)”.

Which Peptide exchange does the source give for “227 (IFLDYEAGTLSF; listed as Homo sapiens) [compound 227]” here?
Its Peptide exchange is “++++ (> = 75% = ++++)”.

With “173 (IYSWILDHF; listed as Homo sapiens) [compound 173]” as the substance, how does the Peptide exchange read?
Its Peptide exchange is “++++ (> = 75% = ++++)”.

Which Peptide exchange does the source give for “217 (FFPPTRQMGLLF; listed as Homo sapiens) [compound 217]” here?
The Peptide exchange was “++++ (> = 75% = ++++)”.

How did the Peptide exchange turn out when “166 (YYVESGKLF; listed as Homo sapiens) [compound 166]” was run?
Its Peptide exchange is “++++ (> = 75% = ++++)”.

How did the Peptide exchange turn out when “274 (AYLHSHALI; listed as Homo sapiens) [compound 274]” was run?
Its Peptide exchange is “++++ (> = 75% = ++++)”.

How did the Peptide exchange turn out when “168 (KYQDILETI; listed as Homo sapiens) [compound 168]” was run?
The Peptide exchange was “++++ (> = 75% = ++++)”.

“267 (KYMVYPQTF; listed as Homo sapiens) [compound 267]” was tested. Which Peptide exchange did it give?
Its Peptide exchange is “++++ (> = 75% = ++++)”.

How did the Peptide exchange turn out when “202 (VYWDSAGAAHF; listed as Homo sapiens) [compound 202]” was run?
Its Peptide exchange is “++++ (> = 75% = ++++)”.

“184 (VFQNFPLLF; listed as Homo sapiens) [compound 184]” was tested. Which Peptide exchange did it give?
The Peptide exchange was “++++ (> = 75% = ++++)”.

With “216 (QYSSVFKSL; listed as Homo sapiens) [compound 216]” as the substance, how does the Peptide exchange read?
The Peptide exchange was “++++ (> = 75% = ++++)”.

With “228 (KYTSWYVAL; listed as Homo sapiens) [compound 228]” as the substance, how does the Peptide exchange read?
The Peptide exchange was “++++ (> = 75% = ++++)”.

“161 (IYLVSIPEL; listed as Homo sapiens) [compound 161]” was tested. Which Peptide exchange did it give?
Its Peptide exchange is “++++ (> = 75% = ++++)”.

Which Peptide exchange does the source give for “160 (VYTLDIPVL; listed as Homo sapiens) [compound 160]” here?
Its Peptide exchange is “++++ (> = 75% = ++++)”.
